Source: ChEMBL document CHEMBL3352807, “Design, synthesis and anti-mycobacterial activity of 1,2,3,5-tetrasubstituted pyrrolyl-N-acetic acid derivatives” (Eur J Med Chem, 2014)
In brackets after ≈: the same amount, converted by molar mass.

Tests used:
[1] = system: Mycolicibacterium smegmatis; test: Antimycobacterial activity against Mycobacterium smegmatis assessed as growth inhibition after 32 hrs by spectrophotometry; type: functional
[2] = Selectivity index, ratio of IC50 for HEK293T cells to MIC for Mycobacterium tuberculosis H37Rv ATCC 27294; type: toxicity, cell-based, HEK-293T; conditions: human, read-out: Selectivity Index
[3] = system: HEK-293T; test: Cytotoxicity against HEK293T cells after 72 hrs by MTT assay; type: cell-based; conditions: Homo sapiens
[4] = system: Mycobacterium tuberculosis; test: Antimycobacterial activity against Mycobacterium tuberculosis H37Rv ATCC 27294 after 28 days by agar dilution method; type: functional; conditions: H37Rv ATCC 27294, 672 h
[5] = system: Pseudomonas aeruginosa; test: Antibacterial activity against Pseudomonas aeruginosa; type: functional
[6] = Cytotoxicity against HEK293T cells at 50 uM after 72 hrs by MTT assay; type: cell-based, HEK-293T; conditions: human

SMILES	GI50 [1] [µM]	selectivity ratio [2]	IC50 [3] [µM]	MIC [4] [µM]	MIC [5] [µM]	inhibition at 72 h, 50 µM [6] [%]
O=C(Cn1c(-c2ccccc2)cc(-c2ccccc2)c1-c1ccc(Br)cc1)Nc1nc2ccccc2s1	48.3	4.51	< 50	11.1 (≈ 6.25 µg/mL)	266 (≈ 150 µg/mL)	86.7
CCc1nnc(NC(=O)Cn2c(-c3ccccc3)cc(-c3ccccc3)c2-c2ccccc2)s1	20.4	3.71	< 50	13.5 (≈ 6.26 µg/mL)	323 (≈ 150 µg/mL)	49.3
O=C(O)Cn1c(-c2ccccc2)cc(-c2ccccc2)c1-c1ccc(Cl)cc1	–	1.55	< 50	64.6 (≈ 25.1 µg/mL)	388 (≈ 150 µg/mL)	37.4
O=C(O)Cn1c(-c2ccccc2)cc(-c2ccco2)c1-c1ccco1	–	–	–	75.1 (≈ 25 µg/mL)	113 (≈ 37.5 µg/mL)	–
O=C(Cn1c(-c2ccc3ccccc3c2)cc(-c2ccccc2)c1-c1ccco1)NCc1ccccc1	–	–	–	51.9 (≈ 25 µg/mL)	311 (≈ 150 µg/mL)	–
O=C(Cn1c(-c2ccccc2)cc(-c2ccccc2)c1-c1ccc(Br)cc1)Nc1ccccn1	45.9	8.13	< 50	6.15 (≈ 3.13 µg/mL)	295 (≈ 150 µg/mL)	75
O=C(Cn1c(-c2ccccc2)cc(-c2ccccc2)c1-c1ccco1)Nc1nc2ccccc2s1	44.6	3.8	< 50	13.2 (≈ 6.26 µg/mL)	316 (≈ 150 µg/mL)	89.8
O=C(Cn1c(-c2ccccc2)cc(-c2ccccc2)c1-c1ccco1)Nc1ccccn1	24.8	1.68	< 50	29.8 (≈ 12.5 µg/mL)	358 (≈ 150 µg/mL)	69.3
CC(C)C(C(=O)O)n1c(-c2ccccc2)cc(-c2ccccc2)c1-c1ccco1 (stereo not given)	–	–	–	130 (≈ 50.1 µg/mL)	97.4 (≈ 37.5 µg/mL)	–
CC(C)CC(C(=O)O)n1c(-c2ccccc2)cc(-c2ccccc2)c1-c1ccco1 (stereo not given)	–	6.38	< 50	7.83 (≈ 3.13 µg/mL)	376 (≈ 150 µg/mL)	82.4
O=C(Cn1c(-c2ccccc2)cc(-c2ccccc2)c1-c1ccccc1)Nc1ccccn1	26.7	6.86	< 50	7.28 (≈ 3.13 µg/mL)	175 (≈ 75.1 µg/mL)	62.9
CN[C@@H]1[C@H](O[C@H]2[C@H](O[C@H]3[C@H](O)[C@@H](O)[C@H](N=C(N)N)[C@@H](O)[C@@H]3N=C(N)N)O[C@@H](C)[C@]2(O)C=O)O[C@@H](CO)[C@H](O)[C@H]1O [STREPTOMYCIN]	–	–	–	–	2.68 (≈ 1.56 µg/mL)	–
O=C(O)Cn1c(-c2ccccc2)cc(-c2cccc3ccccc23)c1-c1ccco1	–	> 6.29	< 50	7.95 (≈ 3.13 µg/mL)	13.3 (≈ 5.22 µg/mL)	32
O=C(Cn1c(-c2ccccc2)cc(-c2cccc3ccccc23)c1-c1ccco1)Nc1nc2ccccc2s1	61.4	16.8	< 50	2.97 (≈ 1.56 µg/mL)	286 (≈ 150 µg/mL)	68.8
CCc1nnc(NC(=O)Cn2c(-c3ccccc3)cc(-c3ccco3)c2-c2ccco2)s1	15.2	3.55	< 50	14.1 (≈ 6.26 µg/mL)	338 (≈ 150 µg/mL)	90.2
CO[C@H]1/C=C/O[C@@]2(C)Oc3c(C)c(O)c4c(O)c(c(/C=N/N5CCN(C)CC5)c(O)c4c3C2=O)NC(=O)/C(C)=C\C=C\[C@H](C)[C@H](O)[C@@H](C)[C@@H](O)[C@@H](C)[C@H](OC(C)=O)[C@@H]1C [RIFAMPIN]	1.22	–	–	0.29 (≈ 0.239 µg/mL)	–	–
O=C(O)Cn1c(-c2ccccc2)cc(-c2ccccc2)c1-c1ccco1	–	2.74	< 50	18.2 (≈ 6.26 µg/mL)	54.7 (≈ 18.8 µg/mL)	114

SMILES	GI50 [1] [µM]	selectivity ratio [2]	IC50 [3] [µM]	MIC [4] [µM]	MIC [5] [µM]	inhibition at 72 h, 50 µM [6] [%]
CC1(C)S[C@@H]2[C@H](NC(=O)Cc3ccccc3)C(=O)N2[C@H]1C(=O)O [PENICILLIN G]	–	–	–	–	37.4 (≈ 12.5 µg/mL)	–
CC(C)C(C(=O)O)n1c(-c2ccccc2)cc(-c2ccco2)c1-c1ccco1 (stereo not given)	–	–	–	66.7 (≈ 25 µg/mL)	400 (≈ 150 µg/mL)	–
NNC(=O)c1ccncc1 [ISONIAZID]	41.6	–	–	5.25 (≈ 0.72 µg/mL)	–	–
O=C(O)Cn1c(-c2ccccc2)cc(-c2ccccc2)c1-c1ccccc1	–	1.47	< 50	34.1 (≈ 12 µg/mL)	47.7 (≈ 16.9 µg/mL)	97
O=C(Cn1c(-c2ccccc2)cc(-c2ccccc2)c1-c1ccco1)NCCc1c[nH]c2ccccc12	26.8	7.76	< 50	6.44 (≈ 3.13 µg/mL)	77.3 (≈ 37.5 µg/mL)	62.5
CCc1nnc(NC(=O)Cn2c(-c3ccccc3)cc(-c3ccccc3)c2-c2ccc(Br)cc2)s1	30.6	–	–	46.1 (≈ 25.1 µg/mL)	277 (≈ 150 µg/mL)	–
CCc1nnc(NC(=O)Cn2c(-c3ccc4ccccc4c3)cc(-c3ccccc3)c2-c2ccco2)s1	73.9	2.02	< 50	24.8 (≈ 12.5 µg/mL)	298 (≈ 150 µg/mL)	83.6
O=C(O)Cn1c(-c2cccc3ccccc23)cc(-c2ccccc2)c1-c1ccco1	–	1.57	< 50	31.8 (≈ 12.5 µg/mL)	47.7 (≈ 18.8 µg/mL)	79.5
O=C(Cn1c(-c2ccc3ccccc3c2)cc(-c2ccccc2)c1-c1ccco1)Nc1nc2ccccc2s1	–	> 16.8	< 50	2.97 (≈ 1.56 µg/mL)	286 (≈ 150 µg/mL)	38.3
CCc1nnc(NC(=O)Cn2c(-c3ccccc3)cc(-c3cccc4ccccc34)c2-c2ccco2)s1	66.8	16.1	< 50	3.1 (≈ 1.56 µg/mL)	298 (≈ 150 µg/mL)	59.7
CCc1nnc(NC(=O)Cn2c(-c3ccccc3)cc(-c3ccccc3)c2-c2ccco2)s1	23.3	1.81	< 50	27.6 (≈ 12.5 µg/mL)	331 (≈ 151 µg/mL)	81
O=C(Cn1c(-c2ccccc2)cc(-c2ccccc2)c1-c1ccccc1)Nc1nc2ccccc2s1	28.9	0.76	< 50	6.44 (≈ 3.13 µg/mL)	309 (≈ 150 µg/mL)	55
O=C(O)Cn1c(-c2ccccc2)cc(-c2ccccc2)c1-c1ccc(Br)cc1	–	–	–	32.3 (≈ 14 µg/mL)	348 (≈ 150 µg/mL)	–
O=C(Cn1c(-c2ccccc2)cc(-c2ccco2)c1-c1ccco1)Nc1nc2ccccc2s1	14	1.7	< 50	29.5 (≈ 13.7 µg/mL)	354 (≈ 165 µg/mL)	65.1
CC[C@@H](CO)NCCN[C@@H](CC)CO [ETHAMBUTOL]	–	–	–	27.5 (≈ 5.62 µg/mL)	–	–
Cc1ccc(-c2c(-c3ccccc3)cc(-c3ccccc3)n2CC(=O)O)cc1	–	0.86	< 50	58 (≈ 21.3 µg/mL)	409 (≈ 150 µg/mL)	78.2
O=C(Cn1c(-c2ccccc2)cc(-c2ccccc2)c1-c1ccco1)NCc1ccccc1	52.4	6.91	< 50	7.23 (≈ 3.13 µg/mL)	347 (≈ 150 µg/mL)	72.4
